Our source for the Kd and Activity values is ChEMBL document CHEMBL1149873, “Identification of neomycin B-binding site in T box antiterminator model RNA” (Bioorg Med Chem, 2008).

Experiment [1] is described as follows: Binding affinity to T box antiterminator RNA.
Experiment [2] in a line: Induction of tRNA-UCCA binding to T box antiterminator RNA AM1A at 200 uM by FRET method.
Experiment [3] can be described thus: Binding affinity to T box antiterminator RNA AM1A by FRET.

Active and inactive are the calls of the source. The rule behind the calls is not given here.

One may read the Kd as a measure of binding affinity in units of concentration. Lower therefore signals higher affinity.

Take `NC[C@@H]1O[C@H](O[C@H]2[C@@H](O)[C@H](O[C@@H]3[C@@H](O)[C@H](N)C[C@H](N)[C@H]3O[C@H]3O[C@H](CN)[C@@H](O)[C@H](O)[C@H]3N)O[C@@H]2CO)[C@H](N)[C@@H](O)[C@@H]1O` [FRAMYCETIN]: the Kd in experiment [1] and in experiment [3] was 8 µM throughout. For the same compound, in experiment [2], the result was Active.
